Here are results for 7 molecules from publication PMC7281614, “Induction of Antibacterial Metabolites by Co-Cultivation of Two Red-Sea-Sponge-Associated Actinomycetes Micromonospora sp. UR56 and Actinokinespora sp. EG49” (Marine Drugs, 2020).

Structures are written as SMILES. Where two headings read alike, the source gives them in different places.

One data set deals with S. aureus. Put plainly: Antibiofilm activity, crystal violet staining. The format is cell-based, Staphylococcus aureus. As to conditions: NA: no activity; for inhibition at 2 µM: Staphylococcus aureus; for Antibiofilm activity (% inhibition) S. aureus: at 2 µM, 2 µM. The method, then:
(§1) The biofilm-inhibitory activities of the isolated pure compounds (1–3, 9, and 10) were measured using 96 well flat polystyrene plates against four clinical microbes comprising Gram-positive (Bacillus subtilis and Staphylococcus aureus) and Gram-negative (Escherichia coli and Pseudomonas aeruginosa) pathogenic bacteria, according to Antunes, et al. with some modifications. Briefly, each well was filled with 180 µL lysogeny broth (LB broth) and then inoculated with 10 µL of pathogenic bacteria followed by addition of 10 µL of sample (2 µM) along with control (without test sample). All inoculated plates were then incubated overnight at 37 °C and, after incubation, content in the wells was removed and wells were rinsed with 200 µL of phosphate-buffered saline (PBS) pH 7.2 to eliminate free-floating microbes and left to dry under sterilized laminar flow for 1 h. For staining, 200 µL/well of crystal violet (0.1%, w/v) was added, left for 1 h, and then excessive stain was removed and plates retained for drying. Further, dried plates were rinsed with 95% ethanol and optical density was measured at 570 nm using a Spectrostar Nano Microplate Reader (BMG LABTECH GmbH, Allmendgrun, Germany).

The subject of the next data set is MCF7. As to the kind of experiment: Cytotoxic activity, MTT assay. As to conditions: Homo sapiens, MCF7, 24 h, read-out: Cytotoxic activity (IC50) MCF7. The procedure:
(§2) The cell lines were purchased from ATCC by (VACSERA), Cairo, Egypt. […] The cell lines were used to detect the inhibitory effects of isolated compounds on cell growth. Cell viability was determined via colorimetric assay (MTT), which is based on the transformation of the yellow tetrazolium bromide to a purple formazan by mitochondrial succinate dehydrogenase. […] Subsequently, the cells were mixed with different concentrations of the isolated compounds and incubated for a further 24 h, and then treated with 20 µL of MTT solution at a concentration of 5 mg/mL and incubated for 4 h. […] The relative cell viability as a percentage was calculated as A570 of treated samples/A570 of untreated sample × 100.
A general note: Tetrazolium dyes change colour on reduction, which living cells bring about.

For another data set, the system named is HCT116. As to the kind of experiment: Cytotoxic activity, MTT assay. As to conditions: Homo sapiens, HCT-116, 24 h, read-out: Cytotoxic activity (IC50) HCT116. The method, then:
as §2

Data set [1] concerns Pseudomonas aeruginosa ATCC27853. Put plainly: Antibacterial activity, growth inhibition in 96 well plates (OD600). Format: cell-based. As to conditions: NA: no activity; for inhibition at 15 µM: Pseudomonas aeruginosa; for Growth inhibition % Pseudomonas aeruginosa: at 15 µM, 15 µM. The method, then: (§3) The antibacterial activity of all isolated pure compounds (1–3, 9, and 10) was evaluated on Gram-positive pathogenic bacteria such as Bacillus subtilis (ATCC29212) and Staphylococcus aureus (ATCC9144 (and Gram-negative pathogenic bacteria such as Escherichia coli. (ATCC25922) and Pseudomonas aeruginosa (ATCC27853), as previously reported. The tests were carried out in 96 well flat polystyrene plates. First, 10 μL of each isolated compound (15 µM) was transferred to 80 μL of lysogeny broth followed by the addition of 10 μL of bacterial suspension at log phase, and then all inoculated plates were incubated overnight at 37 °C. […] The absorbance was observed after 20 h at OD600 in a Spectrostar Nano Microplate Reader (BMG LABTECH GmbH, Allmendgrun, Germany). The positive control was pathogenic bacteria plus distilled water, while the negative control was growth medium plus distilled water.

Data set [2] has as its system Staphylococcus aureus ATCC9144. The data set is described as above. Particulars: NA: no activity; for inhibition at 15 µM: Staphylococcus aureus, ATCC9144, at 15 µM; for Growth inhibition % Staphylococcus aureus: at 15 µM, 15 µM. The format is cell-based. The method, then: as §3
Data set [3] concerns Escherichia coli ATCC25922. Described as above. The format is cell-based. The method, then: as §3
Data set [4] deals with Bacillus subtilis ATCC29212. The description is as above. Format: cell-based. The method, then:
as §3

The next data set relates to HePG-2. Put plainly: Cytotoxic activity, MTT assay. As to conditions: Homo sapiens, read-out: Cytotoxic activity (IC50) HePG-2. Format: cell-based. The text has this:
(§4) Doxorubicin was used as a positive control drug.

A short description of another data set: in vitro. As to conditions: human. The procedure: as §2
The next data set deals with P. aeruginosa. Put plainly: Antibiofilm activity, crystal violet staining. Format: cell-based, Pseudomonas aeruginosa. As to conditions: for inhibition at 2 µM: Pseudomonas aeruginosa. The method, then:
as §1

The subject of a further data set is E. coli. As to the kind of experiment: Antibiofilm activity, crystal violet staining. Particulars: Escherichia coli, read-out: Antibiofilm activity (% inhibition) E. coli. Format: cell-based. The procedure: as §1
The subject of the next data set is B. subtilis. Put plainly: Antibiofilm activity, crystal violet staining. The format is cell-based. Particulars: Bacillus subtilis, NA: no activity. The procedure: as §1
In data set [5] the target is T1, Staphylococcus DNA gyrase-B (Staphylococcus aureus, UniProt P0A0K8).
T1 construct: purchased Inspiralis
T1 sequence (P0A0K8 whole entry): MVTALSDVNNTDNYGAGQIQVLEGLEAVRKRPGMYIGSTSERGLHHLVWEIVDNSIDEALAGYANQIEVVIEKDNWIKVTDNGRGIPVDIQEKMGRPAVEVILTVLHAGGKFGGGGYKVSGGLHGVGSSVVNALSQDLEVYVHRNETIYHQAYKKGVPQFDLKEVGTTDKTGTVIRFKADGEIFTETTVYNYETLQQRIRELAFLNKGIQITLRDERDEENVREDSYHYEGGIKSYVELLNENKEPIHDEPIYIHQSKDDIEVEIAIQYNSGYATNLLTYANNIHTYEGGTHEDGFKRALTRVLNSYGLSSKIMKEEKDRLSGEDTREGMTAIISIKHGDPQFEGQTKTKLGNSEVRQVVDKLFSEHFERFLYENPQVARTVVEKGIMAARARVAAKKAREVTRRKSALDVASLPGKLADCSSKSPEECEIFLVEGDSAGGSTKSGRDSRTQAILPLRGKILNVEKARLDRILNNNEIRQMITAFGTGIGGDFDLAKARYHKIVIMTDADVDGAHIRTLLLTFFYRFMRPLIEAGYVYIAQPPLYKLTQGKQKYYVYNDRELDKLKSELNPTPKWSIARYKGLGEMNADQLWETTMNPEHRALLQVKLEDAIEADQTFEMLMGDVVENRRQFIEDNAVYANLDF
T1 sequence (P20831 whole entry partner): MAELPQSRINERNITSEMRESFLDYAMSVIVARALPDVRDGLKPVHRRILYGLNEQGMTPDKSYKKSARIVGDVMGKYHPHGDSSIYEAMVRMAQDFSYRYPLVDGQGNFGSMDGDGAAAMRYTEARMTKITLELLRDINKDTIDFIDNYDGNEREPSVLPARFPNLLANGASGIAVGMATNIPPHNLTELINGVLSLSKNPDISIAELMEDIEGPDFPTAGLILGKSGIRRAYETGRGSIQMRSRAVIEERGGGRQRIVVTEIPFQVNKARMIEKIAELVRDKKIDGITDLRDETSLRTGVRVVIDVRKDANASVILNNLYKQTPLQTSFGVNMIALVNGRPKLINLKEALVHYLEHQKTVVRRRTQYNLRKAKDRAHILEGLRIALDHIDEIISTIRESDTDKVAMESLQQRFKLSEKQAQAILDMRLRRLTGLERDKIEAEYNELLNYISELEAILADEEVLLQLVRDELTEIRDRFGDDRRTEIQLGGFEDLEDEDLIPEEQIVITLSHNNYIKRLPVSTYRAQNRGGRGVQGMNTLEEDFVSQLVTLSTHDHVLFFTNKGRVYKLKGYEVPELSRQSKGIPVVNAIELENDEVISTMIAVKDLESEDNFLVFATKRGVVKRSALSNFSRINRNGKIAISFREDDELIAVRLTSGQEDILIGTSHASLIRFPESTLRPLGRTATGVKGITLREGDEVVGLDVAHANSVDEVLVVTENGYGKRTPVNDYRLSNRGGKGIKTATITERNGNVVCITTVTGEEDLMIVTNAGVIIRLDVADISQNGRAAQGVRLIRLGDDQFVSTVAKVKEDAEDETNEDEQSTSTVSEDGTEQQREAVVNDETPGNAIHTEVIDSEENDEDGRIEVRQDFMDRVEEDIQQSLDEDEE
As to the kind of experiment: In vitro enzyme assay, DNA gyrase-B ATPase (Inspiralis kit). Format: biochemical. The procedure:
(§5) DNA gyrase (type II topoisomerase) and topoisomerase IV (ParE) add negative supercoils into DNA using ATP hydrolysis as a source of energy. They are considered crucial bacterial enzymes that are absent in eukaryotes. DNA-gyrase-B- and ParE-inhibitory activities were evaluated using the Inspiralis assay kit (Inspiralis®, London, UK) on streptavidin-coated 96 well microtiter plates (Thermo Scientific, Hamburg, Germany), according to the manufacturer’s protocol. The assay detects the ability of the isolated compounds to prevent the ATPase activity of both gyrase-B and ParE subunits. On the other hand, pyruvate kinase (PK) has been discovered to be an important hub protein in the interactome of MRSA [52]. The PK-inhibitory activity of the isolated compounds was assessed according to a previously reported method.

For data set [6], the target named is Staphylococcus pyruvate kinase (PK) (Staphylococcus aureus, UniProt Q6GG09). As to the kind of experiment: In vitro enzyme assay, pyruvate kinase inhibition. Format: biochemical. Particulars: IC50 ± SD. The method, then:
as §5

The subject of data set [7] is four human cancer cell lines. As to the kind of experiment: Cytotoxic activity, MTT assay, all four tested cell lines together. Particulars: range over WI38, HCT116, HePG-2, MCF7, read-out: IC50 values towards the tested cell lines (range). Format: cell-based.
Description: as §4

The mark [8] stands for this setting: ATCC27853, at 15 µM, read-out: Growth inhibition % Pseudomonas aeruginosa.
[9] abbreviates: ATCC25922, at 15 µM, NA: no activity, read-out: Growth inhibition % Escherichia coli.
The mark [10] stands for this setting: ATCC29212, at 15 µM, NA: no activity, read-out: Growth inhibition % Bacillus subtilis.
Setting [11] is: at 2 µM, read-out: Antibiofilm activity (% inhibition) P. aeruginosa.
The mark [12] stands for this setting: IC50 ± SD, read-out: IC50 (µM) Gyr-B.

Chain of Staphylococcus pyruvate kinase (PK) (Q6GG09 whole entry): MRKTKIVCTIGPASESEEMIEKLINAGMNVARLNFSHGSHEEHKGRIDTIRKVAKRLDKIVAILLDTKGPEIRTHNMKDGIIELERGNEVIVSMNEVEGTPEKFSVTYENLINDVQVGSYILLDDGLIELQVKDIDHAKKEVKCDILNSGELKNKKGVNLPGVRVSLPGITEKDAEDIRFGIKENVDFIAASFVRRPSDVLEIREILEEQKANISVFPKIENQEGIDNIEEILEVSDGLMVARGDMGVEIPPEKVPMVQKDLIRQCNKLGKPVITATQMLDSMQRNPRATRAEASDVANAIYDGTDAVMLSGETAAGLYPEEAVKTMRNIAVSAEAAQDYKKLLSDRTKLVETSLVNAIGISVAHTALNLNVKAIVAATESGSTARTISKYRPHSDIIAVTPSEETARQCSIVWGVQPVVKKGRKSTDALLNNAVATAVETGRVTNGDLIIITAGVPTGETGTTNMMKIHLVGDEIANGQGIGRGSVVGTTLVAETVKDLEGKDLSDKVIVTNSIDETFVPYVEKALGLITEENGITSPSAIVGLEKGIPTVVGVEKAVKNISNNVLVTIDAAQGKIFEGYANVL

One may read the inhibition as how much of the control response was suppressed. One may read the IC50 as the concentration that gives 50% inhibition. Consider `COc1ccc(C(N)=O)cc1` [Compound 10, p-anisamide], for which the inhibition at 2 µM in the data set with S. aureus is 61.2 ± 3.7%; in the data set with P. aeruginosa (setting [11]), 73%; in the data set on E. coli (at 2 µM) it was 57.5 ± 3.1%; with B. subtilis it was 20.3 ± 1.1%. In addition, the half-inhibitory concentration (IC50) in the data set on MCF7 is greater than 100 µM; in the data set with HCT116 it was greater than 100 µM; in the data set on HePG-2 (HepG2, 24 h) it was greater than 100 µM. The inhibition at 15 µM came out at 70% in data set [1] (setting [8]), 53.2 ± 1.2% in data set [2], 19.3 ± 2.5% in data set [3] (setting [9]) and 42.2 ± 1.9% in [4] (setting [10]). Besides, the “Growth inhibition % Pseudomonas aeruginosa” value in data set [1] is on record as 70.23 ± 1.1%. The molecule also showed an IC50 at 24 h in the data set “in vitro” greater than 100 µM. Further, the “Antibiofilm activity (% inhibition) P. aeruginosa” value in the data set on P. aeruginosa (at 2 µM) is given as 73.52 ± 1.3%.
Take `CNC(C)C1CCC(N)C(OC2C(N)CC(N)C(OC3OCC(C)(O)C(NC)C3O)C2O)O1` (centres unmarked) [Gentamicin, reference compound]: the inhibition at 15 µM in [1] (setting [8]) came out at 99.7 ± 0.2%; in [2] it was 99.1 ± 0.7%; in [3] (setting [9]), 99 ± 0.6%; in [4] (setting [10]), 97 ± 1.6%.
As for `COC(=O)c1cccc2nc3c(C(=O)O)cccc3nc12` [Compound 2, phenazine-1,6-dicarboxylic acid mono methyl ester], the inhibition at 2 µM is 75% in the data set with S. aureus, 22.3 ± 1.5% with P. aeruginosa (setting [11]), 54.1 ± 2.5% with E. coli (at 2 µM) and 18.6 ± 1.6% with B. subtilis. Besides, the “Antibiofilm activity (% inhibition) S. aureus” value in the data set on S. aureus was 75.10 ± 2.4%. Further, the concentration for half-maximal inhibition (IC50) in the data set with MCF7 came to 82.2 ± 4.4 µM; in the data set with HCT116 it was 60.8 ± 3.5 µM; with HePG-2 (HepG2, 24 h) it was 76.1 ± 3.9 µM; in data set [5] (setting [12]) it was 21.3 ± 2.36 µM; in data set [6], 9.3 ± 0.03 µM. In addition, the inhibition at 15 µM in data set [1] (setting [8]) worked out at 23.2 ± 2.2%; in [2], 69%; in [3] (setting [9]), 11.2 ± 1.4%; in data set [4] (setting [10]), 32.1 ± 1.3%. Further, the “Growth inhibition % Staphylococcus aureus” value in data set [2] was found to be 68.87 ± 0.8%. The IC50 at 24 h in “in vitro” was 76.3 ± 3.9 µM.
On to `O=C(O)c1cccc2nc3ccccc3nc12` [Compound 3, phenazine-1-carboxylic acid], for which the IC50 in the data set with MCF7 was greater than 100 µM; in the data set on HCT116, 91.3 ± 4.6 µM; in the data set with HePG-2 (HepG2, 24 h) it was greater than 100 µM; in [5], 27.7 ± 1.08 µM; in [6], 22.5 ± 0.04 µM. Moreover, the inhibition at 15 µM stood at 94% in data set [1] (ATCC27853, read-out: Growth inhibition % Pseudomonas aeruginosa, at 15 µM); 24.3 ± 1.8% in data set [3] (ATCC25922, read-out: Growth inhibition % Escherichia coli); 1.69 ± 1.2% in [4] (ATCC29212, read-out: Growth inhibition % Bacillus subtilis). In data set [1], the “Growth inhibition % Pseudomonas aeruginosa” value came out at 94.17 ± 2.8%. This molecule also showed an IC50 at 24 h in the data set “in vitro” of 51.2 ± 3.2 µM. For the same molecule, the inhibition at 2 µM with P. aeruginosa (read-out: Antibiofilm activity (% inhibition) P. aeruginosa, at 2 µM) was 94%; in the data set on E. coli, 54.7 ± 1.4%. Also, the “Antibiofilm activity (% inhibition) P. aeruginosa” value with P. aeruginosa (at 2 µM) turned out to be 93.98 ± 2.2%.
As for `COc1cccc2c1C(=O)c1c(O)c3c(c(O)c1C2=O)C[C@@](O)(C(=O)CO)C[C@@H]3O[C@H]1C[C@H](N)[C@H](O)[C@H](C)O1` [Doxorubicin, reference compound], the IC50 in the data set on HePG-2 (HepG2, MTT, 24 h, table title prints "at 2 µM") turned out to be 4.5 ± 0.2 µM.
For `CC(=O)Nc1ccccc1O` [Compound 9, N-(2-hydroxyphenyl)-acetamide], the inhibition at 2 µM with S. aureus was found to be 11.5 ± 2.9%; in the data set with P. aeruginosa (setting [11]) it was 7.39 ± 1.9%; in the data set with E. coli (at 2 µM), 34.5 ± 2.6%; in the data set on B. subtilis it was 4.91 ± 1.8%. Also, the IC50 with MCF7 is 12.7 ± 1.1 µM; in the data set with HCT116, 14.6 ± 1.2 µM; with HePG-2 (HepG2, 24 h) it was 10.2 ± 0.9 µM; in data set [7], 10 to 36 µM. Also, the inhibition at 15 µM in data set [1] (setting [8]) is 4.74 ± 1.6%. Moreover, in the data set “in vitro”, the IC50 at 24 h worked out at 36.5 ± 2.3 µM.
Turning to `COC(=O)c1cccc2nc3c(C(=O)OC)cccc3nc12` [Compound 1, dimethyl phenazine-1,6-dicarboxylate], the inhibition at 2 µM in the data set with S. aureus is 50%; in the data set on P. aeruginosa (setting [11]), 18.4 ± 0.9%; with E. coli (at 2 µM), 36.7 ± 2.9%; with B. subtilis it was 12.1 ± 3.2%. The “Antibiofilm activity (% inhibition) S. aureus” value in the data set with S. aureus came to 50.26 ± 0.4%. Further, the IC50 is greater than 100 µM in the data set on MCF7; 85 ± 3.9 µM with HCT116; 92.1 ± 4.7 µM with HePG-2 (HepG2, 24 h); 19.2 ± 1.69 µM in data set [5] (setting [12]); 7.2 ± 0.07 µM in data set [6]. Also, the inhibition at 15 µM in data set [1] (setting [8]) worked out at 23.4 ± 1.7%; in data set [2], 47%; in data set [3] (setting [9]), 9.93 ± 1.3%; in [4] (setting [10]), 19.6 ± 1.5%. In addition, in [2], the “Growth inhibition % Staphylococcus aureus” value amounted to 57.19 ± 1.2%. The 50% inhibitory concentration (IC50) at 24 h in “in vitro” was found to be 63.2 ± 3.6 µM.
